# Assay results taken from PubChem BioAssay (NCI).
#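 48-hour exposure; five concentrations; linearly interpolated endpoints. GI50 = concentration required for 50% inhibition of growth. The concentration for full growth arrest is given as TGI.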
# Columns and labels:
# Assay in all cases: inhibition of tumour cell growth, NCI panel, 48 h
# A498 renal = system: A498 renal
# LOX IMVI melanoma = system: LOX IMVI melanoma
# HS 578T breast = system: HS 578T breast
# MDA-MB-231 breast = system: MDA-MB-231 breast
# SF-539 CNS = system: SF-539 CNS
# NCI-H23 lung = system: NCI-H23 lung
# 786-0 renal = system: 786-0 renal
# SK-OV-3 ovarian = system: SK-OV-3 ovarian
# A549 NSCLC = system: A549 NSCLC
# M14 melanoma = system: M14 melanoma
# NCI-H460 lung = system: NCI-H460 lung
# SF-268 CNS = system: SF-268 CNS
# NCI/ADR-RES ovarian = system: NCI/ADR-RES ovarian
# OVCAR-8 ovarian = system: OVCAR-8 ovarian
# HCT-15 colon = system: HCT-15 colon
# CAKI-1 renal = system: CAKI-1 renal
# COLO 205 colon = system: COLO 205 colon
# SNB-19 CNS = system: SNB-19 CNS
# RXF 393 renal = system: RXF 393 renal
# SNB-75 CNS = system: SNB-75 CNS
# SK-MEL-5 melanoma = system: SK-MEL-5 melanoma
# HCC-2998 colon = system: HCC-2998 colon
# MDA-MB-435 = system: MDA-MB-435
# HOP-92 NSCLC = system: HOP-92 NSCLC
# UACC-257 melanoma = system: UACC-257 melanoma
# DU-145 prostate = system: DU-145 prostate
# SF-295 CNS = system: SF-295 CNS
# ACHN renal = system: ACHN renal
compound,measurement,setting,value
COC(=O)[C@]12CC[C@@H](C)[C@H](C)[C@@H]1C1=CC[C@@H]3[C@@]4(C)C[C@@H](OC(C)=O)[C@H](O)[C@@](C)(CO)[C@@H]4[C@H](O)C[C@@]3(C)[C@]1(C)CC2,GI50,A498 renal,11.9 µM
same,TGI,A498 renal,24.7 µM
same,GI50,LOX IMVI melanoma,10.4 µM
same,TGI,LOX IMVI melanoma,23.6 µM
same,GI50,HS 578T breast,11.9 µM
same,TGI,HS 578T breast,29.6 µM
same,GI50,MDA-MB-231 breast,8.95 µM
same,TGI,MDA-MB-231 breast,23.4 µM
same,GI50,SF-539 CNS,14.8 µM
same,TGI,SF-539 CNS,29.4 µM
same,GI50,NCI-H23 lung,13.6 µM
same,TGI,NCI-H23 lung,30 µM
same,GI50,786-0 renal,14.5 µM
same,TGI,786-0 renal,29.8 µM
same,GI50,SK-OV-3 ovarian,16.6 µM
same,TGI,SK-OV-3 ovarian,30.7 µM
same,GI50,A549 NSCLC,6.39 µM
same,TGI,A549 NSCLC,20.8 µM
same,GI50,M14 melanoma,8.14 µM
same,TGI,M14 melanoma,22.2 µM
same,GI50,NCI-H460 lung,10.6 µM
same,TGI,NCI-H460 lung,26.3 µM
same,GI50,SF-268 CNS,10.8 µM
same,TGI,SF-268 CNS,28.2 µM
same,GI50,NCI/ADR-RES ovarian,13.2 µM
same,TGI,NCI/ADR-RES ovarian,29.5 µM
same,GI50,OVCAR-8 ovarian,12.2 µM
same,TGI,OVCAR-8 ovarian,30.4 µM
same,GI50,HCT-15 colon,7.74 µM
same,TGI,HCT-15 colon,22.9 µM
same,GI50,CAKI-1 renal,10.1 µM
same,TGI,CAKI-1 renal,21.9 µM
same,GI50,COLO 205 colon,11.6 µM
same,TGI,COLO 205 colon,25.9 µM
same,GI50,SNB-19 CNS,14.3 µM
same,TGI,SNB-19 CNS,31.3 µM
same,GI50,RXF 393 renal,11 µM
same,TGI,RXF 393 renal,26.4 µM
same,GI50,SNB-75 CNS,10.2 µM
same,TGI,SNB-75 CNS,23.1 µM
same,GI50,SK-MEL-5 melanoma,12.9 µM
same,TGI,SK-MEL-5 melanoma,26 µM
same,GI50,HCC-2998 colon,12 µM
same,TGI,HCC-2998 colon,26.7 µM
same,GI50,MDA-MB-435,12.6 µM
same,TGI,MDA-MB-435,26 µM
same,GI50,HOP-92 NSCLC,11.3 µM
same,TGI,HOP-92 NSCLC,24.3 µM
same,GI50,UACC-257 melanoma,13.4 µM
same,TGI,UACC-257 melanoma,28.1 µM
same,GI50,DU-145 prostate,13 µM
same,TGI,DU-145 prostate,26.4 µM
same,GI50,SF-295 CNS,11.6 µM
same,TGI,SF-295 CNS,25.1 µM
same,GI50,ACHN renal,10.4 µM
same,TGI,ACHN renal,24.5 µM
